Columns and labels:
[1] = test system: histone H3 (Thr3) phosphorylation by haspin; experiment: Western blot, histone H3 (Thr3) phosphorylation by haspin in Molm-14 cells; assay type: cell-based, human; conditions: 24 hours, HSK205 5, 20 or 100 nM, gilteritinib 100 nM
Procedure: Whether Compound HSK205 does indeed inhibit haspin in AML cells was then evaluated, and immunoblotting was performed to confirm inhibition of histone H3 (Thr3)phosphorylation by haspin (FIG. 13A). […] The samples were subsequently analyzed for the phosphorylation of histone H3 (Thr3).
Acute myeloid leukemia cells (Molm-14) were incubated with various concentrations of compound as specified. Cells were collected and lysed, and protein concentrations were quantified relative to BSA standards. After protein denaturation, proteins were separated via SDS-PAGE electrophoresis and transferred to NC membranes. After blocking, overnight incubation with specific primary antibodies, and room temperature incubation for 2 hours with peroxidase-conjugated secondary antibodies, peroxidase activity was detected with SuperSignal West Pico reagents (Thermo Scientific) using a CCD camera LAS-4000 (Fujifilm). Bands were normalized using housekeeping gene, Actin. Values reported represent the means of triplicates and error bars represent SD. All specific antibodies were purchased from Cell Signaling.

[2] = test system: DNA; experiment: DNA intercalation assay; conditions: doses from 1 mM to 10 nM
Procedure: FIG. 16 is a graph of data from a DNA intercalation assay. […] Data was fitted to a non-linear regression equation using GraphPad Prism 9.0 software (each data point represents the mean of triplicates).
To move compounds forward for further development, DNA intercalation assays were conducted to eliminate compounds with high affinity for DNA.

[3] = test system: Molm-14-ITD-F691L; experiment: Cell viability GI50, Molm-14-ITD-F691L; assay type: cell-based; conditions: Homo sapiens; 72 hours
Procedure: (§1) More specifically, cells were cultured to confluence in RPMI medium supplemented with 10% fetal bovine serum and 1× Penicillin-Streptomycin (Gibco™). Cells were plated at 5,000 cells/well in 96 well plates. After 24-hour incubation at 37° C. in a 5% CO2 incubator, compounds diluted in the same media were added to the indicated final concentration and allowed to incubate at 37° C. in a 5% CO2 incubator for 72 hours. Viability was determined using CellTiter-Blue® Cell Viability Assay (Promega, Madison, WI) with absorbance readings at 570 nm performed on a Cytation™ 5 Cell Imaging Multi-Mode Reader (BioTek) 3 hours after addition. Appropriate vehicle and cell-free controls were included. GI50 readings were confirmed by two scientists on two separate days.
Scholl et al. (2020), supra. Accordingly, Compound HSK205 was evaluated against Molm-14 cell lines that harbor resistant mutations commonly found in the clinic, FLT3-ITD-D835Y and F691L (FIG. 15).

[4] = test system: Molm-14 cells (FLT3-ITD); experiment: AML cell line growth inhibition (CellTiter-Blue), 50 nM; assay type: cell-based; conditions: Homo sapiens, 50 nM inhibitor conc., means of triplicates, read-out: Percent Inhibition (%) Molm-14 growth
Procedure: With the amide kinase inhibitor library established, kinase inhibition and AML cell line (Molm-14, which harbors FLT3-ITD) growth inhibition were analyzed (Table 1). More specifically, Haspin and FLT3 inhibition were evaluated in-house via ADP Glo Kinase Assay (Promega, Madison, WI). […] Values reported are means of triplicates.
as §1

[5] = biological target: T1, FLT3-D835Y (Homo sapiens, UniProt P36888, D835Y); experiment: FLT3 (D835Y) enzyme inhibition, 10-dose IC50 (Reaction Biology); assay type: biochemical; conditions: 10 μM ATP
T1 construct: purchased Reaction Biology (contract research service)
T1 sequence (P36888 27-993 D835Y): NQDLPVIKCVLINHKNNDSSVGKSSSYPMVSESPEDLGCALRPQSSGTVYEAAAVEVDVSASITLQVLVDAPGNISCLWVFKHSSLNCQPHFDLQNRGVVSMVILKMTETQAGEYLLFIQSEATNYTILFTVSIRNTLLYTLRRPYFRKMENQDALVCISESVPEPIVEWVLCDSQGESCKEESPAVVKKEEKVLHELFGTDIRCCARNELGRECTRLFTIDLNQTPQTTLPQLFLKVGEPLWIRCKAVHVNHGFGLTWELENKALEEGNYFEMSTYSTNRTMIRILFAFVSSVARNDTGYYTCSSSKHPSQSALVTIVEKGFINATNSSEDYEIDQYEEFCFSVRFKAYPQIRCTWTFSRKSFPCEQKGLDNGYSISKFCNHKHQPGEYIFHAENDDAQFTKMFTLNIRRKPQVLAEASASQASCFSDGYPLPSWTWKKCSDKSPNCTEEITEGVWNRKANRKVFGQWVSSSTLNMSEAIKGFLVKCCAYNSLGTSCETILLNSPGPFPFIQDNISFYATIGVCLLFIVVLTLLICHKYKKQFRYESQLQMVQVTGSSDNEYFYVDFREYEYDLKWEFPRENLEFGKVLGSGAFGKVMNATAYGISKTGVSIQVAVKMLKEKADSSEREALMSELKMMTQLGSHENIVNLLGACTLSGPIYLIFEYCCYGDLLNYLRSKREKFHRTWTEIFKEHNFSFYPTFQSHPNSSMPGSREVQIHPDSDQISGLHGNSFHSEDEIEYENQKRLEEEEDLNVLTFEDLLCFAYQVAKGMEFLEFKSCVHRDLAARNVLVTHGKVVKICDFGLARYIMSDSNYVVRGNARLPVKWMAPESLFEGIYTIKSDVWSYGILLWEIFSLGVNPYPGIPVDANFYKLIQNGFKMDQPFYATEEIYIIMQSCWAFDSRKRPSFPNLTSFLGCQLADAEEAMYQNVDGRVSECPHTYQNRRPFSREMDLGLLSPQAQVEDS

## Cc1c[nH]c(CNC(=O)c2ccc(-c3nc4ccc5[nH]ncc5c4c4c3CCCC4)cc2)n1 [Compound HSK205]
[1]
  phosphorylation of histone H3 (Thr3): effective in reducing phosphyorlation of histone H3 (Thr3)
[2]
  DNA intercalation: did not intercalate into DNA
[3]
  GI50: 2.2 nM
[4]
  inhibition at 0.05 µM: 96%
[5]
  IC50: < 0.5 nM

— patent US20250320203A1, “4-(3H-PYRAZOLO[4,3-F]QUINOLIN-7-YL)-N-(2-(DIMETHYLAMINO)ETHYL)BENZAMIDE- OR HYDROXAMIC ACID COMPOUNDS, COMPOSITIONS, AND METHODS OF USE” (Purdue Research Foundation, priority 2022, published 2025)
